Results on five molecules are retold here after patent US11912682B2, “Isoindolinone compounds” (Monte Rosa Therapeutics, Inc., priority 2021, dated 2024).

The target in one assay is IKZF1 (Ikaros) (Homo sapiens (Human), UniProt Q13422). The assay can be described thus: selectivity by Western blot in MM1S cells, IKZF1. The note with it: for IKZF1 degradation: MM1S cells, 6 hours, 0.3, 3 and 30 μM. The arrangement: key to IKZF1 degradation: A represents a no degradation observed at 30 μM; B represents trace degradation at 30 μM (below 20%); C represents weak degradation at 30 μM (below 50%); D represents degradation at 30 μM (>90%); E represents degradation at 3 μM (>90%); F represents degradation at 0.3 μM (>90%). The format is cell-based. Here is the method:
MM1S cells were purchased from ATCC (cat. Number CRL-2974), sub-cultured in 90% RPMI 1640 with 10% FBS, supplemented with 1× P/S and incubated at 37° C., 5% CO2. Compounds were stored as 10 mM DMSO stock. For the assay, MM1S cells (3 million cells/well) were plated in 6-well plates and incubated over night. Cells were treated with respective compounds using a serial dilution: 0.3 μM, 3 μM and 30 μM as well as a vehicle only (DMSO) control for 6 hours. Media with suspension cells was subsequently transferred to 15 mL conical tubes, wells rinsed twice with ice-cold PBS and merged with cell suspension in respective 15 mL conical tube. Cells were spinned down, supernatant aspirated, pellets resuspended in ice-cold PBS and transferred to microtubes. Cells were spinned down, supernatant aspirated and pellets resuspended in 120 μL RIPA lysis buffer supplemented with protease and phosphatase inhibitors. Cell lysates were incubated on ice for 20 minutes followed by centrifugation at >20,000 xg for 5 min. Supernatants were transferred to fresh microtubes and stored at −80° C. Total protein concentration was determined using a BCA assay with a BSA standard curve and concentration of all samples was adjusted to 1 mg/mL. 25 μL 4× LDS sample buffer supplemented with 100 mM DTT was added to 75 μL sample. Samples were centrifuged (8,000 xg, 1 min) and incubated at 95° C. for 5 min followed by another centrifugation step (8,000 xg, 1 min). 20 μL of each sample was loaded on a 4-12% gel alongside a protein molecular weight marker. Gels were run in the presence of MOPS buffer at 80 Volts for 30 min, followed by 120 Volts for 1.5 h and proteins subsequently transferred onto nitrocellulose membranes at 20 Volts for 7 min using an iBlot2 Gel Transfer Device. Membranes were then cut horizontally into two pieces, covering 80-50 kDa and 50-25 kDa. Blocking the membranes was performed by gently shaking in 5% (w/v) skim milk in TSB-T for 1 hr at room temperature. All primary antibodies were used at a 1/1000 in 5% (w/v) BSA dissolved in TBST and incubated with membranes over night at 4° C. Anti-IKZF1 (Ikaros; D6N9Y; 14859S), anti-IKZF3 (Aiolos; D1C1E; 15103S) antibodies were purchased from Cell Signalling Technology, anti-ZFP91 antibody from Bethyl laboratories, anti-GSPT1 from Sigma Aldrich (HPA052488) and anti CK1alpha from AbCam (ab206652). After three washes with 1× TBST for 5 min, HRP-coupled secondary antibodies diluted in 5% (w/v) BSA/TBST (Goat Anti-Rb IgG, dil. 1/10,000; Goat Anti-Mouse IgG, dil. 1/5000) were added for 1 hr at room temperature. After three washes with 1× TBST (5 minutes each), membranes were incubated with ECL reagent for 1 min at room temperature. Chemiluminescence signals were then detected using a LAS-4000 system with default settings and signals quantified using Image Studio Lite software (version 5.2). Membrane parts previously incubated with antibody against CK1alpha were stripped off antibodies by incubating with stripping buffer for 30 minutes followed by three washed with TBST (5 min each), blocking with 5% (w/v) skim milk for 1 hr, and incubation with primary antibody against GAPDH overnight at 4° C. Subsequent washes, incubation with secondary antibody and signal acquisition were performed as described above.
(A western blot detects proteins with antibodies after separation by electrophoresis.)

Assay [1] deals with Full length wild-type cereblon CRBN (Homo sapiens (Human), UniProt Q96SW2). The assay can be described thus: fluorescence polarization (FP) assay, cereblon binding. In a few lines:
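Full-length wild-type CRBN (80.0 nM as dispensed) preincubated 30 min at room temperature with compound in HEPES pH 8.0, NaCl, TCEP, 0.05% Tween 20.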
Background: In fluorescence polarisation assays a small probe gives low polarisation when free and higher when bound to something large.

Where two headings read alike, the source gives them in different places.

Chain of Full length wild-type cereblon CRBN (Q96SW2 whole entry): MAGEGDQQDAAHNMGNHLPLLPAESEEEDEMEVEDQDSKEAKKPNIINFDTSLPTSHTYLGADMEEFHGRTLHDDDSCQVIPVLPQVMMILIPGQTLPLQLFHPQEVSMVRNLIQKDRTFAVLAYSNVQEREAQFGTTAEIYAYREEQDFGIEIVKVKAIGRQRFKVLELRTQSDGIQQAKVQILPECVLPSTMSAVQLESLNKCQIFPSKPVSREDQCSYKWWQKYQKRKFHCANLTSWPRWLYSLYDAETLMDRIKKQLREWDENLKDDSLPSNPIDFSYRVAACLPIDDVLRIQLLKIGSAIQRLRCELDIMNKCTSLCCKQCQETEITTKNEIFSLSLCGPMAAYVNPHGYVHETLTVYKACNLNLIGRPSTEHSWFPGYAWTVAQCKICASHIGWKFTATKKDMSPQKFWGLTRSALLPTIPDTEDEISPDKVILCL
Chain of IKZF1 (Ikaros) (Q13422 whole entry, looked up): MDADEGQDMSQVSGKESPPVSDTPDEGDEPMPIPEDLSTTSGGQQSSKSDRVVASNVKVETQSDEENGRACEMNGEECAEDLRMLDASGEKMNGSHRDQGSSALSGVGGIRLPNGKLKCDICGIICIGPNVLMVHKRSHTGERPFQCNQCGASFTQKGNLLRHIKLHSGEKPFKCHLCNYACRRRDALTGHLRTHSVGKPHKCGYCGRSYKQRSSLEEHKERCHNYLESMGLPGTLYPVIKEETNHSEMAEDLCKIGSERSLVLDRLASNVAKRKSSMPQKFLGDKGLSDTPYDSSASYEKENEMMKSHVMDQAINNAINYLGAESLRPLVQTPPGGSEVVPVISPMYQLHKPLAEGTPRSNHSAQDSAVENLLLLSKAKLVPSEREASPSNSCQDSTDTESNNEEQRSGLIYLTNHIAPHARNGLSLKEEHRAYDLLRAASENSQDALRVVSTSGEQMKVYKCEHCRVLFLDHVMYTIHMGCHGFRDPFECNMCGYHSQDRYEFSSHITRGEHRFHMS

In the case of `Cc1ncc(NC(=O)OCc2ccc3c(c2)C(=O)N(C2CCC(=O)NC2=O)C3)cc1Cl` (stereo not shown) [Compound 6], the IKZF1 degradation entry on IKZF1 (Ikaros) was “A”. Further, in assay [1] (read-out: IC50 value), the IC50 is less than 1.1 µM.

As for `Cc1ccc(NC(=O)OCc2ccc3c(c2)C(=O)N(C2CCC(=O)NC2=O)C3)cc1Cl` (stereo not shown) [Compound 10], the IKZF1 degradation result on IKZF1 (Ikaros) was “A”. At IKZF1 (Ikaros) (highest concentration tested of 30 μM), the “IKZF1 degradation (FIG. 1A)” value is given as “none of the known the substrates IKZF1, IKZF3, SALL4, CK1alpha was degraded”.

Consider `O=C1CCC(N2Cc3ccc(COC(=O)Nc4ccc(N5CCCCC5)nc4)cc3C2=O)C(=O)N1` (stereo not shown) [Compound 15], for which the IKZF1 degradation result at IKZF1 (Ikaros) is “A”. For the same molecule, the IC50 in assay [1] (read-out: IC50 value) is less than 1.1 µM.

Turning to `O=C1CCC(N2Cc3ccc(COC(=O)Nc4ccc(-c5ccccc5)nc4)cc3C2=O)C(=O)N1` (stereo not shown) [Compound 42], the IKZF1 degradation result at IKZF1 (Ikaros) is given as “A”. The IC50 in assay [1] (read-out: rFP IC50) was greater than 1.7 µM.

As to `CC(C)(C)c1ccc(NC(=O)OCc2ccc3c(c2)C(=O)N(C2CCC(=O)NC2=O)C3)cn1` (stereo not shown) [Compound 43], on IKZF1 (Ikaros), the IKZF1 degradation entry is given as “A”. In addition, in assay [1] (read-out: rFP IC50), the IC50 was greater than 1.7 µM.

Usually IC50 stands for the concentration that gives 50% inhibition.
